The structures appear in SMILES notation. In brackets after ≈: the same amount, converted by molar mass. Several values for one entry are separate records, joined by “and”; a condition that tells them apart may be missing. Equal values may be shown once.

Series [1] relates to A375. Nature of the series: Cell growth inhibition in skin cancer cells. The note with it: Homo sapiens, A-375. The format is cell-based.
For series [2], the system named is 2237. In words: Cell growth inhibition in skin cancer cells. It counts as cell-based.
The conditions of series [3]: 33 days.
Series [4] can be described thus: physchem.
In series [5] the test system is SRB1. In words: Cell growth inhibition in skin cancer cells. It counts as cell-based.
The nature of series [6]: In vitro MZ release, USP Dissolution Apparatus 2. It counts as physicochemical. The settings on record: for Cumulative MZ Released: individual determinations. Here is the method: All four formulations were filled manually with a syringe into a hydrophilic airfill soft gelatin capsule (R. P. Scherer, Basking Ridge, N.J.) and the resulting hole was sealed thermally. […] C. Cremphor RH 40 was used to maintain the sink condition of the releasing medium. The release medium was constantly stirred at 50 rpm by a Teflon-coated dissolution paddle. Serial release samples were withdrawn and filtered through a 0.45 μm Millipore filter and analyzed by the HPLC assay.

The subject of series [7] is H1299 cells. In words: Cell growth inhibition in NSCLC cells. The settings on record: Homo sapiens, NCI-H1299, NSCLC cells; MZ from two microemulsion formulations. The format is cell-based.

Usually IC50 stands for the point on the concentration scale where inhibition reaches its midpoint. A higher IC50 goes with a need for much substance. Broadly, the logP is a log measure of how a compound divides between an organic and an aqueous phase. In the case of `COC(=O)Nc1nc2ccc(C(=O)c3ccccc3)cc2[nH]1` [MZ, methyl 5-benzoylbenzimidazole-2-carbamate], the IC50 was found to be 0.129 µg/mL (≈ 0.437 µM) in series [1], 0.171 µg/mL (≈ 0.579 µM) in series [2], 0.091 µg/mL (≈ 0.308 µM) in series [5] and 0.008 µg/mL (≈ 0.0271 µM) in series [7]. For the same compound, the pH-stability result in series [3] is on record as “sufficiently stable”. Also, the logP in series [4] worked out at 2.51. The “Cumulative MZ Released, Mean” value in series [6] (10 min) was 0.04 % Dose; in series [6] (20 min), 0.15 % Dose; in series [6] (30 min), 0.22 % Dose; in series [6] (40 min), 0.29 % Dose; in series [6] (50 min) it was 0.29 % Dose; in series [6] (60 min, listed as MZ powder), 0.29 % Dose. Moreover, the “Cumulative MZ Released, Mean” value in series [6] (60 min, listed as unformulated drug powder) is given as 0.3 % Dose. The “Cumulative MZ Released” value was 0.01 % Dose and 0.012 % Dose and 0.083 % Dose in series [6] (10 min, listed as MZ powder); 0.035 % Dose and 0.22 % Dose and 0.18 % Dose in series [6] (20 min, listed as MZ powder); 0.14 % Dose and 0.25 % Dose and 0.28 % Dose in series [6] (30 min, listed as MZ powder); 0.22 % Dose and 0.23 % Dose and 0.41 % Dose in series [6] (40 min, listed as MZ powder); 0.2 % Dose and 0.31 % Dose and 0.35 % Dose in series [6] (50 min, listed as MZ powder); 0.27 % Dose (2×) and 0.32 % Dose in series [6] (60 min, listed as MZ powder).

The record behind these values is US9259390B2, “Parenteral and oral formulations of benzimidazoles” (priority 2003, dated 2016).
